Source: paper PMC5706701, “Development of a homogenous high-throughput assay for inositol hexakisphosphate kinase 1 activity” (PLoS ONE, 2017)
Entries after “also recorded” stand apart in the source; their conditions may differ. Like-named read-outs stand apart in the source and are kept apart here.

How the values were obtained:
Human IP6K1 [1] = target: T1, Human IP6K1 (Homo sapiens, UniProt Q92551); test: IP6K1 kinetic assay (ADP-Glo Max, Michaelis-Menten); format: biochemical; details: 400μM IP6, ATP 31.25μM to 2mM, 15ng IP6K1, 15 minutes
T1 construct: GST (N, cleaved yes); made in house; host or cells: C43 E. coli, pGEX-6P-2
T1 sequence (Q92551 whole entry): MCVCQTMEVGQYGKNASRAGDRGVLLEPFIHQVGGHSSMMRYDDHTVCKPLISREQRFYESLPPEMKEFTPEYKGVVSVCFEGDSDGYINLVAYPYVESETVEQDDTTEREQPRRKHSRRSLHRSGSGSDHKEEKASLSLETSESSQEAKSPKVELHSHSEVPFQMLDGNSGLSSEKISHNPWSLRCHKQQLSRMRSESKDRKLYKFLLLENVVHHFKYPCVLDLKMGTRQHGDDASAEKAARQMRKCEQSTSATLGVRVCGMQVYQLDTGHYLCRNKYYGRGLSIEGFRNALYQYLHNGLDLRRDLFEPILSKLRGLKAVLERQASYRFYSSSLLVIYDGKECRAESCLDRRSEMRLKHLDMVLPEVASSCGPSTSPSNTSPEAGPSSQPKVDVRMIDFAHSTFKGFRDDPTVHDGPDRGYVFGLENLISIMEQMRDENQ
Experimental: IP6K1 activity was measured using the ADP-Glo Max kit (Promega). […] Reactions were quenched with 5μL of Promega ADP-Glo reagent to deplete the remaining ATP at the corresponding time points and incubated for 1hr at room temperature in the dark. […] Luminescence was detected with a Tecan Infinite […] plate reader. The amount of ADP produced by IP6K1 was determined by correlating the observed luminescence to a luminescence signal standard curve generated from various concentrations of ADP. A new standard curve was generated for each concentration of ATP tested such that the total amount of nucleotides (ATP+ADP) at every point on the curve was equal to the concentration of ATP used in the experiment. Standard curves typically began with 100μM or 50μM ADP and were serially 2-fold diluted 8 times. […] Nonlinear regressions and curve fitting to the Michaelis-Menten equation were performed in GraphPad Prism 7. […] The ADP production at […] was measured. The initial reaction velocity (V0) was calculated and plotted with each ATP condition. GraphPad Prism 7 was used to run the non-linear regression and fit the data to the Michaelis-Menten equation. […] The Michaelis-Menten constants when IP6 is the varied substrate were unable to be determined.

IP6K1 = tested on: IP6K1; parameters: method as in PMID 8633060; details: 3H-PP-IP5 production with 3H-IP6 as substrate; read-out: Km of ATP for IP6K1; cited from earlier work
Human IP6K1 [2] = target: T1, Human IP6K1; test: IP6K1 inhibition dose-response assay (ADP-Glo Max); format: biochemical; details: for IC50: read-out: IC50 IP6K1
[3] = tested on: enzymes involved in the detection steps of the kit; test: Counter-screen against the detection steps of the ADP-Glo Max kit (no enzyme, no IP6); format: biochemical; details: 10μM compound, 25μM ADP and 975μM ATP
Experimental: The Sigma LOPAC was obtained as 10mM DMSO stock solutions from the Johns Hopkins ChemCore facility. Each compound was first diluted to 50μM and 25% DMSO in assay buffer. The inhibition assay was performed as described above with 1μL of compound and 4μL of kinase master mix so that the final compound concentration was 10μM in 5% DMSO. […] Hits were determined based by the Z score, which is calculated as Z = (Xi-Xavg)/Sx, where Xi is the raw measurement on the i^th compound, Xavg and Sx are the mean and the standard deviation, respectively, of all measurements within the plate. Hits identified from the screen were repeated in the assay in quadruplicate for confirmation. These confirmed hits were then tested to determine if they inhibited the enzymes involved in the detection steps of the kit. Possible interference of the compounds was assessed by measuring the degree to which they inhibited the signal produced by a 25μM ADP in the presence of 975μM ATP. This experiment was run as described above for the inhibition assays in the absence of enzyme and IP6.

Human IP6K1 [4] = target: T1, Human IP6K1; test: Inositol polyphosphate separation by PAGE (5PP-IP5 production by IP6K1); format: biochemical; details: 10μM inhibitor, 1mM ATP, 250μM IP6, 60nM IP6K1, 2 hours, 37°C
DIO mice = tested on: DIO mice; parameters: method as in PMID 27689003; details: DIO model, mice treated with TNP; cited from earlier work
[5] = cited from earlier work
[6] = cited from earlier work; remark: listed apart in the source

Q: What does the source list for `Nc1ncnc2c1ncn2[C@@H]1O[C@H](COP(=O)(O)OP(=O)(O)OP(=O)(O)O)[C@@H](O)[C@H]1O` [ATP]?
A: Km (Human IP6K1 [1]): 382 ± 44 µM; Vmax for ATP (Human IP6K1 [1]): 1116 ± 41 nmol/min/mg; Km (IP6K1): 1000 µM

Q: For `O=[N+]([O-])c1ccc(CNc2nc(NCc3cccc(C(F)(F)F)c3)nc3nc[nH]c23)cc1` [TNP, N2-(m-trifluorobenzyl), N6-(p-nitrobenzyl)purine], which IC50 (Human IP6K1 [2]; 50μM IP6, 300μM ATP, 60nM IP6K1, 15 minutes) is on record?
A: 24 ± 1.5 µM

Q: And the IC50 (Human IP6K1 [2]; 62.5μM ATP, 400μM IP6, 60nM IP6K1, 30 minutes, 37°C)?
A: 12 ± 1.1 µM

Q: What about the IC50 (Human IP6K1 [2]; 100μM IP6, 300μM ATP, 60nM IP6K1, 15 minutes) of the same compound?
A: 20 ± 4.5 µM

Q: What about the IC50 (Human IP6K1 [2]; 200μM IP6, 300μM ATP, 60nM IP6K1, 15 minutes) of the same compound?
A: 21 ± 1.8 µM

Q: What about the IC50 (Human IP6K1 [2]; 250μM ATP, 400μM IP6, 60nM IP6K1, 30 minutes, 37°C) of the same compound?
A: 16 ± 1.1 µM

Q: And the IC50 (Human IP6K1 [2]; 400μM IP6, 300μM ATP, 60nM IP6K1, 15 minutes)?
A: 9.5 ± 1.5 µM

Q: What about the IC50 (Human IP6K1 [2]; 2mM ATP, 400μM IP6, 60nM IP6K1, 30 minutes, 37°C) of the same compound?
A: 39 ± 1.1 µM

Q: And the “Mode of inhibition of IP6K1” value (Human IP6K1 [2]; from IC50 shift with ATP or IP6 concentration)?
A: ATP competitive inhibitor; also recorded: IP6 is not competitive with TNP

Q: What about the “Signal loss in counter-screen of detection steps” value [3] of the same compound?
A: neither TNP nor 6-Hydroxy-DL-Dopa showed significant signal loss

Q: And the “Inhibition of 5PP-IP5 production by IP6K1 (PAGE, Toluidine Blue)” value (Human IP6K1 [4])?
A: inhibit 5PP-IP5 production in this experiment at 10μM albeit to a lesser degree

Q: What about the “Performance in insulin and glucose tolerance tests” value (DIO mice) of the same compound?
A: better performance in insulin and glucose tolerance tests

Q: And the Pharmacokinetic properties [5]?
A: poor pharmacokinetic properties

Q: What about the Brain penetration ([5]; in vivo) of the same compound?
A: low brain penetration

Q: What about the “Solubility in aqueous media” value [6] of the same compound?
A: insolubility in aqueous media
